Results from ChEMBL document CHEMBL3045324, “5-phenyl-1-benzofuran-2-yl derivatives: synthesis, antimicrobial, and antioxidant activity” (2013).
≈ marks a conversion by molar mass, not a printed value. Calls of active or inactive are those of the source. The calls are words filed in the database; no cut-off is given here.

Assays:
[1] = system: Bacillus subtilis; assay: Antibacterial activity against Bacillus subtilis NCTC 10400 assessed as growth inhibition at 1 to 50 mg/mL after 24 hr; format: functional, organism-based
[2] = system: Staphylococcus aureus; assay: Antibacterial activity against Staphylococcus aureus NCTC 10788 assessed as growth inhibition at 1 to 50 mg/mL after 24 hr; format: functional, organism-based
[3] = system: Escherichia coli; assay: Antibacterial activity against Escherichia coli NCTC 12923 assessed as growth inhibition at 1 to 50 mg/mL after 24 hr; format: functional, organism-based
[4] = system: Radical scavenging activity; assay: Antioxidant activity assessed as DPPH radical scavenging activity at 1 mg/mL after 15 min UV-vis spectrophotometric analysis relative to control; format: functional
[5] = system: Candida albicans; assay: Antifungal activity against Candida albicans NCPF 3179 assessed as growth inhibition at 1 to 50 mg/mL after 3 days; format: functional, organism-based
[6] = system: Staphylococcus aureus; assay: Antibacterial activity against Staphylococcus aureus NCTC 10788 assessed as growth inhibition after 24 hr; format: functional; details: NCTC 10788, 24 h
[7] = system: Escherichia coli; assay: Antibacterial activity against Escherichia coli NCTC 12923 assessed as growth inhibition at 50 mg/mL after 24 hr; format: functional; details: for zone of inhibition at 50000 µg/mL: NCTC 12923, 24 h, read-out: IZ
[8] = system: Staphylococcus aureus; assay: Antibacterial activity against Staphylococcus aureus NCTC 10788 assessed as growth inhibition at 50 mg/mL after 24 hr; format: functional; details: for zone of inhibition at 50000 µg/mL: NCTC 10788, 24 h, read-out: IZ
[9] = system: Bacillus subtilis; assay: Antibacterial activity against Bacillus subtilis NCTC 10400 assessed as growth inhibition after 24 hr; format: functional; details: NCTC 10400, 24 h
[10] = system: Bacillus subtilis; assay: Antibacterial activity against Bacillus subtilis NCTC 10400 assessed as growth inhibition at 50 mg/mL after 24 hr; format: functional; details: for zone of inhibition at 50000 µg/mL: NCTC 10400, 24 h, read-out: IZ
[11] = system: Candida albicans; assay: Antifungal activity against Candida albicans NCPF 3179 assessed as growth inhibition at 50 mg/mL after 3 days; format: functional; details: NCPF 3179, 72 h, read-out: IZ
[12] = system: Escherichia coli; assay: Antibacterial activity against Escherichia coli NCTC 12923 assessed as growth inhibition after 24 hr; format: functional; details: NCTC 12923, 24 h
[13] = system: Candida albicans; assay: Antifungal activity against Candida albicans NCPF 3179 assessed as growth inhibition after 3 days; format: functional; details: NCPF 3179, 72 h

N#Cc1ccc(Cl)c(-c2ccc(C(=O)c3cc4cc(-c5cc(C#N)ccc5Cl)ccc4o3)cc2)c1
growth inhibition (GI) [1]: inactive | growth inhibition (GI) [2]: inactive | growth inhibition (GI) [3]: inactive | Activity [4]: 15.8% | growth inhibition (GI) [5]: inactive

CCc1ccc(-c2ccc(C(O)(CC)c3cc4cc(-c5ccc(CC)cc5)ccc4o3)cc2)cc1 (stereo not given)
growth inhibition (GI) [1]: inactive | growth inhibition (GI) [2]: inactive | growth inhibition (GI) [3]: inactive | Activity [4]: 55.2% | growth inhibition (GI) [5]: inactive

O=C(c1ccc(-c2ccccc2F)cc1)c1cc2cc(-c3ccccc3F)ccc2o1
growth inhibition (GI) [1]: inactive | growth inhibition (GI) [2]: inactive | growth inhibition (GI) [3]: inactive | Activity [4]: 18.7% | growth inhibition (GI) [5]: inactive

CCc1ccc(-c2ccc(C(=O)c3cc4cc(-c5ccc(CC)cc5)ccc4o3)cc2)cc1
growth inhibition (GI) [3]: inactive | Activity [4]: 17.3%

CC(=O)c1ccccc1-c1ccc(C(=O)c2cc3cc(-c4ccccc4C(C)=O)ccc3o2)cc1
MIC [6]: 100 µg/mL (≈ 218 µM) | zone of inhibition at 50000 µg/mL [7]: 0 mm | zone of inhibition at 50000 µg/mL [8]: 8 mm | MIC [9]: 100 µg/mL (≈ 218 µM) | growth inhibition (GI) [3]: inactive | Activity [4]: 19% | zone of inhibition at 50000 µg/mL [10]: 10 mm | zone of inhibition at 50000 µg/mL [11]: 0 mm

CCOc1ccccc1-c1ccc(C(O)(c2cc3cc(-c4ccccc4OCC)ccc3o2)C(C)(C)C)cc1 (stereo not given)
growth inhibition (GI) [1]: inactive | growth inhibition (GI) [2]: inactive | growth inhibition (GI) [3]: inactive | Activity [4]: 21.2% | growth inhibition (GI) [5]: inactive

OC(Cc1ccccc1)(c1ccc(-c2ccccc2)cc1)c1cc2cc(-c3ccccc3)ccc2o1 (stereo not given)
growth inhibition (GI) [1]: inactive | growth inhibition (GI) [2]: inactive | growth inhibition (GI) [3]: inactive | Activity [4]: 30.5% | growth inhibition (GI) [5]: inactive

OC(c1ccc(-c2ccccc2F)cc1)c1cc2cc(-c3ccccc3F)ccc2o1 (stereo not given)
growth inhibition (GI) [1]: inactive | zone of inhibition at 50000 µg/mL [7]: 0 mm | zone of inhibition at 50000 µg/mL [8]: 0 mm | growth inhibition (GI) [2]: inactive | MIC [9]: 50 µg/mL (≈ 121 µM) | growth inhibition (GI) [3]: inactive | Activity [4]: 21.3% | zone of inhibition at 50000 µg/mL [10]: 6 mm | growth inhibition (GI) [5]: inactive | zone of inhibition at 50000 µg/mL [11]: 0 mm

CCOc1ccccc1-c1ccc(C(O)c2cc3cc(-c4ccccc4OCC)ccc3o2)cc1 (stereo not given)
growth inhibition (GI) [1]: inactive | growth inhibition (GI) [2]: inactive | growth inhibition (GI) [3]: inactive | Activity [4]: 19.3% | growth inhibition (GI) [5]: inactive

O=C(c1ccc(Br)cc1)c1cc2cc(Br)ccc2o1
MIC [6]: 50 µg/mL (≈ 132 µM) | MIC [12]: 50 µg/mL (≈ 132 µM) | zone of inhibition at 50000 µg/mL [7]: 17 mm | zone of inhibition at 50000 µg/mL [8]: 23 mm | MIC [13]: 50 µg/mL (≈ 132 µM) | MIC [9]: 50 µg/mL (≈ 132 µM) | Activity [4]: 11.7% | zone of inhibition at 50000 µg/mL [10]: 24 mm | zone of inhibition at 50000 µg/mL [11]: 15 mm

CCOc1ccccc1-c1ccc(C(O)(Cc2ccccc2)c2cc3cc(-c4ccccc4OCC)ccc3o2)cc1 (stereo not given)
growth inhibition (GI) [1]: inactive | growth inhibition (GI) [2]: inactive | growth inhibition (GI) [3]: inactive | Activity [4]: 16.4% | growth inhibition (GI) [5]: inactive

CC1(C)S[C@@H]2[C@H](NC(=O)[C@H](N)c3ccccc3)C(=O)N2[C@H]1C(=O)O [AMPICILLIN]
zone of inhibition at 50000 µg/mL [7]: 20 mm | zone of inhibition at 50000 µg/mL [8]: 16 mm | zone of inhibition at 50000 µg/mL [10]: 15 mm | zone of inhibition at 50000 µg/mL [11]: 0 mm

C=Cc1ccc(-c2ccc(C(=O)c3cc4cc(-c5ccc(C=C)cc5)ccc4o3)cc2)cc1
MIC [6]: 250 µg/mL (≈ 586 µM) | zone of inhibition at 50000 µg/mL [7]: 0 mm | zone of inhibition at 50000 µg/mL [8]: 10 mm | MIC [13]: 500 µg/mL (≈ 1170 µM) | MIC [9]: 50 µg/mL (≈ 117 µM) | growth inhibition (GI) [3]: inactive | Activity [4]: 33.7% | zone of inhibition at 50000 µg/mL [10]: 16 mm | zone of inhibition at 50000 µg/mL [11]: 6 mm

CCc1ccc(-c2ccc(C(O)(c3cc4cc(-c5ccc(CC)cc5)ccc4o3)C(C)(C)C)cc2)cc1 (stereo not given)
growth inhibition (GI) [1]: inactive | growth inhibition (GI) [2]: inactive | growth inhibition (GI) [3]: inactive | Activity [4]: 24.2% | growth inhibition (GI) [5]: inactive

CCOc1ccccc1-c1ccc(C(O)(c2cc3cc(-c4ccccc4OCC)ccc3o2)C(C)C)cc1 (stereo not given)
growth inhibition (GI) [1]: inactive | growth inhibition (GI) [2]: inactive | growth inhibition (GI) [3]: inactive | Activity [4]: 11.4% | growth inhibition (GI) [5]: inactive

CCOc1ccccc1-c1ccc(C(O)(CC)c2cc3cc(-c4ccccc4OCC)ccc3o2)cc1 (stereo not given)
growth inhibition (GI) [1]: inactive | growth inhibition (GI) [2]: inactive | growth inhibition (GI) [3]: inactive | Activity [4]: 5.5% | growth inhibition (GI) [5]: inactive

CCc1ccc(-c2ccc(C(O)(c3cc4cc(-c5ccc(CC)cc5)ccc4o3)C(C)C)cc2)cc1 (stereo not given)
growth inhibition (GI) [1]: inactive | growth inhibition (GI) [2]: inactive | growth inhibition (GI) [3]: inactive | Activity [4]: 34.7% | growth inhibition (GI) [5]: inactive

CC(C)C(O)(c1ccc(-c2ccccc2)cc1)c1cc2cc(-c3ccccc3)ccc2o1 (stereo not given)
growth inhibition (GI) [1]: inactive | growth inhibition (GI) [2]: inactive | growth inhibition (GI) [3]: inactive | Activity [4]: 52.3% | growth inhibition (GI) [5]: inactive

OC(c1ccc(-c2ccccc2)cc1)c1cc2cc(-c3ccccc3)ccc2o1 (stereo not given)
growth inhibition (GI) [1]: inactive | growth inhibition (GI) [2]: inactive | growth inhibition (GI) [3]: inactive | Activity [4]: 79.5% | growth inhibition (GI) [5]: inactive

O=C(c1ccc(-c2ccccc2)cc1)c1cc2cc(-c3ccccc3)ccc2o1
MIC [6]: 1 µg/mL (≈ 2.67 µM) | zone of inhibition at 50000 µg/mL [7]: 0 mm | zone of inhibition at 50000 µg/mL [8]: 15 mm | MIC [13]: 10 µg/mL (≈ 26.7 µM) | MIC [9]: 10 µg/mL (≈ 26.7 µM) | growth inhibition (GI) [3]: inactive | Activity [4]: 7.3% | zone of inhibition at 50000 µg/mL [10]: 22 mm | zone of inhibition at 50000 µg/mL [11]: 10 mm

NYSTATIN
inhibition zone (IZ) [7]: 0 mm | inhibition zone (IZ) [8]: 0 mm | inhibition zone (IZ) [10]: 0 mm

Cc1cc(C(C)(C)C)c(O)c(C(C)(C)C)c1
Activity [4]: 90.4%

CCOc1ccccc1-c1ccc(C(=O)c2cc3cc(-c4ccccc4OCC)ccc3o2)cc1
growth inhibition (GI) [1]: inactive | growth inhibition (GI) [2]: inactive | growth inhibition (GI) [3]: inactive | Activity [4]: 16.1% | growth inhibition (GI) [5]: inactive

O=C(c1ccc(-c2cccc([N+](=O)[O-])c2)cc1)c1cc2cc(-c3cccc([N+](=O)[O-])c3)ccc2o1
zone of inhibition at 50000 µg/mL [7]: 0 mm | zone of inhibition at 50000 µg/mL [8]: 0 mm | MIC [9]: 50 µg/mL (≈ 108 µM) | growth inhibition (GI) [3]: inactive | Activity [4]: 19.5% | zone of inhibition at 50000 µg/mL [10]: 7 mm | zone of inhibition at 50000 µg/mL [11]: 0 mm

CS(=O)(=O)c1cccc(-c2ccc(C(O)c3cc4cc(-c5cccc(S(C)(=O)=O)c5)ccc4o3)cc2)c1 (stereo not given)
growth inhibition (GI) [3]: inactive | Activity [4]: 39.8%

CCc1ccc(-c2ccc(C(O)c3cc4cc(-c5ccc(CC)cc5)ccc4o3)cc2)cc1 (stereo not given)
growth inhibition (GI) [1]: inactive | growth inhibition (GI) [2]: inactive | growth inhibition (GI) [3]: inactive | Activity [4]: 55.7% | growth inhibition (GI) [5]: inactive

CC(C)(C)C(O)(c1ccc(-c2ccccc2)cc1)c1cc2cc(-c3ccccc3)ccc2o1 (stereo not given)
growth inhibition (GI) [1]: inactive | growth inhibition (GI) [2]: inactive | growth inhibition (GI) [3]: inactive | Activity [4]: 18.8% | growth inhibition (GI) [5]: inactive

CCC(O)(c1ccc(-c2ccccc2)cc1)c1cc2cc(-c3ccccc3)ccc2o1 (stereo not given)
growth inhibition (GI) [1]: inactive | growth inhibition (GI) [2]: inactive | growth inhibition (GI) [3]: inactive | Activity [4]: 12.9% | growth inhibition (GI) [5]: inactive

CCc1ccc(-c2ccc(C(O)(Cc3ccccc3)c3cc4cc(-c5ccc(CC)cc5)ccc4o3)cc2)cc1 (stereo not given)
growth inhibition (GI) [1]: inactive | growth inhibition (GI) [2]: inactive | growth inhibition (GI) [3]: inactive | Activity [4]: 60.3% | growth inhibition (GI) [5]: inactive

O=[N+]([O-])c1cccc(-c2ccc(C(O)c3cc4cc(-c5cccc([N+](=O)[O-])c5)ccc4o3)cc2)c1 (stereo not given)
MIC [6]: 500 µg/mL (≈ 1070 µM) | zone of inhibition at 50000 µg/mL [7]: 0 mm | zone of inhibition at 50000 µg/mL [8]: 6 mm | MIC [9]: 500 µg/mL (≈ 1070 µM) | growth inhibition (GI) [3]: inactive | Activity [4]: 19.9% | zone of inhibition at 50000 µg/mL [10]: 6 mm | zone of inhibition at 50000 µg/mL [11]: 0 mm

CS(=O)(=O)c1cccc(-c2ccc(C(=O)c3cc4cc(-c5cccc(S(C)(=O)=O)c5)ccc4o3)cc2)c1
zone of inhibition at 50000 µg/mL [7]: 0 mm | zone of inhibition at 50000 µg/mL [8]: 0 mm | MIC [13]: 500 µg/mL (≈ 942 µM) | MIC [9]: 500 µg/mL (≈ 942 µM) | growth inhibition (GI) [3]: inactive | Activity [4]: 12.3% | zone of inhibition at 50000 µg/mL [10]: 16 mm | zone of inhibition at 50000 µg/mL [11]: 6 mm
